{"source": "patent US20230242558A1", "about": "“NICOTINATE AND NICOTINAMIDE RIBOSIDE-BASED COMPOUNDS AND DERIVATIVES THEREOF” (New Frontier Bio, Inc., priority 2022, published 2023)", "data": [{"system": "HaCaT cells", "test": "NAD assay in HaCaT cells, total NAD level normalized to protein", "assay_type": "cell-based", "details": "4 hours incubation, concentration not given", "method": "The biological activity of certain compounds disclosed herein was determined using the following method: • 1. Plate HaCaT cells in 12-well tissue culture plates at a density of 200,000 cells per well in 0.75 mL DMEM growth medium. Incubate overnight at 37° C. in a incubator at 5% CO2. • 2. Next day, prepare dilutions of each compound in growth medium at the desired final concentration. • 3. Incubate cells as above for 4 hours. • 4. After the incubation, wash cell monolayers in each well with 200 uL PBS and add 200 uL 0.25% Trypsin. Let cells lift for 15 minutes. • 5. Once cells are lifted, collect cells into sterile 1.5 mL Eppendorf tube containing 400 uL of DMEM w/2% HI FBS. • 6. Centrifuge tubes for 500×g for 5 min. • 7. Aspirate supernatant and wash cells with 200 uL of cold PBS. • 8. Centrifuge tubes for 500×g for 5 min. • 9. Aspirate supernatant and add 400 μL of cold extraction buffer (provided in the NAD assay kit) and vortex each tube for 10 seconds. • 10. Centrifuge samples at 13,000×g for 10 min to remove insoluble material. • 11. Use a small aliquot of extract to determine total protein concentration by BCA protein assay kit. • 12. Deproteinize samples by filtering them through a 10 kDa cut-off spin filter. Centrifuge at 13,000×g for 10 min. • 13. After cell lysate is filtered, load 25 uL of samples to 96 well plate for NAD assay. • 14. Add 25 uL of extraction buffer to each well with samples to dilute them 1:2. Add 50 uL of standards to appropriate wells. • 15. Set up master reaction mix of cycling buffer and NAD cycling enzyme mix. Add 100 uL of mix to each well and incubate for […]. • 16. Add 10 uL of developer into each well. • 17. Let plate incubate at room temperature for 1 hr. • 18. Stop the reaction by adding 10 uL of stop solution into each well and mix well. • 19. Measure absorbance at 450 nm using plate reader. • 20. Plot standard curve and normalize data to determine total NAD level.", "units": {"NAD+ level": "pmol/mg protein"}, "values": [{"compound": "CC(C)Cc1ccc(C(C)C(=O)NCCNC(=O)c2cccnc2)cc1", "note": "(stereo not drawn)", "NAD+ level": 697}, {"compound": "O=C(Nc1ccccc1C[P+](c1ccccc1)(c1ccccc1)c1ccccc1)c1cccnc1", "NAD+ level": 666}, {"compound": "O=C(NCC[P+](c1ccccc1)(c1ccccc1)c1ccccc1)c1cccnc1", "NAD+ level": 466}, {"compound": "O=C(NCCC[P+](c1ccccc1)(c1ccccc1)c1ccccc1)c1cccnc1", "NAD+ level": 560}, {"compound": "O=C(CCCCC[P+](c1ccccc1)(c1ccccc1)c1ccccc1)NCCNC(=O)c1cccnc1", "NAD+ level": 607}, {"compound": "CCCCCCCCCCCCCCOC(=O)c1ccc[n+]([C@@H]2O[C@H](CO)[C@@H](O)[C@H]2O)c1", "NAD+ level": "<1"}, {"compound": "CCCCCCCCCCCCCCOC(=O)c1ccc[n+]([C@@H]2O[C@H](COC(C)=O)[C@@H](OC(C)=O)[C@H]2OC(C)=O)c1", "NAD+ level": "<1"}, {"compound": "CCCCCCCCCCCCCCOC(=O)c1ccc[n+]([C@@H]2O[C@H](COP(=O)([O-])O)[C@@H](O)[C@H]2O)c1", "NAD+ level": 475}, {"compound": "O=C(OCC[P+](c1ccccc1)(c1ccccc1)c1ccccc1)c1cccnc1", "NAD+ level": "<1"}, {"compound": "CCCCCCCCCCCCCCNC(=O)c1ccc[n+]([C@@H]2O[C@H](COC(C)=O)[C@@H](OC(C)=O)[C@H]2OC(C)=O)c1", "NAD+ level": "<1"}, {"compound": "NCCOC(=O)c1cccnc1", "NAD+ level": 562}, {"compound": "CCCC(=O)OC[C@H]1O[C@@H]([n+]2cccc(C(=O)O)c2)[C@H](OC(=O)CCC)[C@@H]1OC(=O)CCC", "NAD+ level": 831}, {"compound": "CC(=O)OC[C@H]1O[C@@H]([n+]2cccc(C(=O)NCc3ccccc3)c2)[C@H](OC(C)=O)[C@@H]1OC(C)=O", "NAD+ level": 399}, {"compound": "CC(=O)OCC1OC([n+]2cccc(C(=O)Oc3c(C)c(C)c4c(c3C)CC[C@@](C)(CCC[C@H](C)CCC[C@H](C)CCCC(C)C)O4)c2)C(OC(C)=O)C1OC(C)=O", "note": "(stereo partly drawn)", "NAD+ level": 301}, {"compound": "O=C(Cc1ccccc1Nc1c(Cl)cccc1Cl)OCCOC(=O)c1cccnc1", "NAD+ level": "<1"}, {"compound": "CC1=C(/C=C/C(C)=C/C=C/C(C)=C/C(=O)OCCOC(=O)c2cccnc2)C(C)(C)CCC1", "NAD+ level": 788}, {"compound": "O=C(NCCCCCC[P+](c1ccccc1)(c1ccccc1)c1ccccc1)c1cccnc1", "note": "[drawing 171]", "NAD+ level": 217}, {"compound": "O=C(NCCCCCC[P+](c1ccccc1)(c1ccccc1)c1ccccc1)c1ccc[n+]([C@@H]2O[C@H](COP(=O)(O)O)[C@@H](O)[C@H]2O)c1", "note": "[drawing 172]", "NAD+ level": 449}]}]}
